Test results as given in ChEMBL document CHEMBL1201862, “PubChem BioAssay data set” (2004).
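A five-concentration, 48-hour dose response in 96-well plates underlies each endpoint, interpolated linearly between surrounding concentrations. The concentration for 50% growth inhibition is given as GI50.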 The source made the active and inactive calls. Cut-off read from the data, not from the text of the source: active = GI50 up to about 1.1 µM and inactive = higher.

Tests used:
Experiment in all cases: growth of human tumour cells (NCI), 48 h
[1] = tested on: NCI-H522
[2] = tested on: HL-60
[3] = tested on: SK-MEL-28
[4] = tested on: OVCAR-4
[5] = tested on: ACHN
[6] = tested on: KM12
[7] = tested on: NCI-H23
[8] = tested on: K562
[9] = tested on: EKVX
[10] = tested on: UO-31
[11] = tested on: CCRF-CEM
[12] = tested on: SNB-75
[13] = tested on: OVCAR-3
[14] = tested on: HT-29
[15] = tested on: HCC 2998
[16] = tested on: SN12C
[17] = tested on: A498

Measured: GI50

C#Cc1c(C)c(/C=C/C(C)=C/C=C/C(C)=C/C(=O)OC)n(C)c1C
inactive: [1] > 100 µM | [2] > 100 µM | [3] > 100 µM | [4] > 100 µM | [5] > 100 µM | [6] > 100 µM | [7] > 100 µM | [8] > 100 µM | [9] > 100 µM | [10] > 100 µM | [11] > 100 µM | [12] 44.5 µM | [13] > 100 µM | [14] > 100 µM

CCOC(=O)NC(=O)c1cn(CCSCCOC(=O)NCCCCCCNC(=O)OCCSCCn2cc(C(=O)NC(=O)OCC)c(=O)n(C)c2=O)c(=O)n(C)c1=O
inactive: [2] 15.3 µM | [3] 41.8 µM | [5] > 100 µM | [7] 19.9 µM | [9] > 100 µM | [10] > 100 µM | [11] 30 µM | [15] 30.5 µM | [12] > 100 µM | [13] 23.8 µM | [16] 21.8 µM | [14] 52.5 µM

CCCCCCCCOC(CO)CO
inactive: [2] > 100 µM | [3] > 100 µM | [4] > 100 µM | [5] > 100 µM | [7] > 100 µM | [8] > 100 µM | [10] > 100 µM | [11] > 100 µM | [15] > 100 µM | [13] > 100 µM | [16] > 100 µM | [14] > 100 µM | [17] > 100 µM

O=c1nc(-c2ccccc2)scc1-c1ccccc1
inactive: [1] 21 µM | [2] > 100 µM | [3] > 100 µM | [4] > 100 µM | [5] > 100 µM | [6] > 100 µM | [7] > 100 µM | [8] > 100 µM | [9] > 100 µM | [10] > 100 µM | [11] > 100 µM | [12] > 100 µM | [13] > 100 µM | [16] > 100 µM | [14] > 100 µM

CC(NC1CCCC[C@@H]1O)c1ccccc1 (stereo partly drawn)
inactive: [2] > 100 µM | [3] > 100 µM | [4] > 100 µM | [5] > 100 µM | [6] > 100 µM | [8] > 100 µM | [9] > 100 µM | [10] > 100 µM | [11] > 100 µM | [15] > 100 µM | [12] > 100 µM | [13] > 100 µM | [16] > 100 µM | [14] > 100 µM

CN(C)/N=C(\CCN1CCCC1)CC(c1ccccc1)c1c(O)c2ccccc2oc1=O (stereo not drawn)
inactive: [1] > 100 µM | [2] 25.2 µM | [3] > 100 µM | [4] > 100 µM | [5] > 100 µM | [7] > 100 µM | [8] > 100 µM | [9] > 100 µM | [11] > 100 µM | [15] > 100 µM | [12] 58.2 µM | [13] > 100 µM | [16] > 100 µM | [14] > 100 µM

CCc1ccccc1NC(=O)CCc1n[nH]c(=S)o1
inactive: [2] > 100 µM | [3] > 100 µM | [4] > 100 µM | [5] > 100 µM | [6] > 100 µM | [7] > 100 µM | [8] > 100 µM | [9] > 100 µM | [10] > 100 µM | [11] > 100 µM | [15] > 100 µM | [12] > 100 µM | [13] > 100 µM | [16] > 100 µM | [14] > 100 µM | [17] > 100 µM

O=C(O)COc1ccccc1C(=O)Nc1ccccc1
inactive: [1] > 100 µM | [2] > 100 µM | [3] > 100 µM | [4] > 100 µM | [5] > 100 µM | [6] > 100 µM | [7] > 100 µM | [8] > 100 µM | [9] > 100 µM | [10] > 100 µM | [11] > 100 µM | [12] 77.8 µM | [13] > 100 µM | [16] > 100 µM | [14] > 100 µM
